Measurements published in ChEMBL document CHEMBL1806468, “A facile synthesis of 1,5-disubstituted-2-aminoimidazoles: antibiotic activity of a first generation library” (2011).
Activity calls are given as the source filed them. The rule behind the calls is not given here.

Tests used:
Escherichia coli [1] = experiment: Antimicrobial activity against Escherichia coli ATCC 35695 after 16 hrs by broth microdilution method; assay type: functional; settings: ATCC 35695, 16 h
Klebsiella pneumoniae = experiment: Antimicrobial activity against carbapenem-resistant Klebsiella pneumoniae BAA-2146 expressing […] gene after 16 hrs by broth microdilution method; assay type: functional; settings: BAA-2146, 16 h
[2] = system: Staphylococcus epidermidis; experiment: Antimicrobial activity against Staphylococcus epidermidis ATCC 29886 after 16 hrs by broth microdilution method; assay type: functional; settings: ATCC 29886, 16 h
Acinetobacter baumannii [3] = experiment: Antimicrobial activity against multidrug-resistant Acinetobacter baumannii BAA-1605 after 16 hrs by broth microdilution method; assay type: functional; settings: BAA-1605, 16 h
Staphylococcus aureus [4] = experiment: Antimicrobial activity against methicillin-susceptible Staphylococcus aureus ATCC 29213 after 16 hrs by broth microdilution method; assay type: functional; settings: ATCC 29213, 16 h
Staphylococcus aureus [5] = experiment: Antimicrobial activity against methicillin-resistant Staphylococcus aureus BAA-44 after 16 hrs by broth microdilution method; assay type: functional; settings: BAA-44, 16 h
[6] = system: Staphylococcus epidermidis; experiment: Antimicrobial activity against methicillin-resistant Staphylococcus epidermidis ATCC 51625 after 16 hrs by broth microdilution method; assay type: functional; settings: ATCC 51625, 16 h
Acinetobacter baumannii [7] = experiment: Antimicrobial activity against Acinetobacter baumannii ATCC 19606 after 16 hrs by broth microdilution method; assay type: functional; settings: ATCC 19606 = CIP 70.34 = JCM 6841, 16 h
Acinetobacter baumannii [8] = experiment: Inhibition of Acinetobacter baumannii BAA-1605 biofilm formation after 24 hrs by crystal violet reporter assay; assay type: functional; as to INH: test concentration or dose not given here
Escherichia coli [9] = experiment: Inhibition of Escherichia coli ATCC 35695 biofilm formation after 24 hrs by crystal violet reporter assay; assay type: functional; also: test concentration or dose not given here
Acinetobacter baumannii [10] = experiment: Inhibition of Acinetobacter baumannii ATCC 19606 biofilm formation after 24 hrs by crystal violet reporter assay; assay type: functional, ATCC 19606 = CIP 70.34 = JCM 6841; also: test concentration or dose not given here
Staphylococcus aureus [11] = experiment: Inhibition of Staphylococcus aureus BAA-44 biofilm formation after 24 hrs by crystal violet reporter assay; assay type: functional; also: test concentration or dose not given here
Staphylococcus aureus [12] = experiment: Inhibition of Staphylococcus aureus ATCC 29213 biofilm formation after 24 hrs by crystal violet reporter assay; assay type: functional; also: test concentration or dose not given here

SMILES | MIC (Escherichia coli [1]) | MIC (Klebsiella pneumoniae) | MIC [2] | MIC (Acinetobacter baumannii [3]) | MIC (Staphylococcus aureus [4]) | MIC (Staphylococcus aureus [5]) | MIC [6] | MIC (Acinetobacter baumannii [7]) | inhibition (INH) (Acinetobacter baumannii [8]) | inhibition (INH) (Escherichia coli [9]) | inhibition (INH) (Acinetobacter baumannii [10]) | inhibition (INH) (Staphylococcus aureus [11]) | inhibition (INH) (Staphylococcus aureus [12]) | inhibition (Acinetobacter baumannii [8])
Cl.Nc1ncc(CCCCNC(=O)OCc2ccccc2)n1Cc1ccccc1 | 64 µg/mL | 128 µg/mL | 32 µg/mL | 64 µg/mL | 32 µg/mL | 32 µg/mL | 32 µg/mL | 64 µg/mL |  |  |  |  |  | 
CC(C)Cc1cnc(N)n1Cc1ccccc1.Cl | 128 µg/mL | 128 µg/mL | 16 µg/mL | 128 µg/mL | 128 µg/mL | 128 µg/mL | 128 µg/mL | 128 µg/mL |  |  |  |  |  | 
CCCCCn1c(CC(C)C)cnc1N.Cl | 64 µg/mL | 128 µg/mL | 32 µg/mL | 64 µg/mL | > 128 µg/mL | 128 µg/mL | 128 µg/mL | 64 µg/mL |  |  |  |  |  | 
Cl.Nc1ncc(CCCCNC(=O)OCc2ccccc2)n1CCCc1ccccc1 | 64 µg/mL | 128 µg/mL | 16 µg/mL | 32 µg/mL | 16 µg/mL | 16 µg/mL | 16 µg/mL | 32 µg/mL |  |  |  |  |  | 
CCCCCCCCn1c(Cc2ccccc2)cnc1N.Cl | 128 µg/mL | > 128 µg/mL | 128 µg/mL | 128 µg/mL | 128 µg/mL | 128 µg/mL | 128 µg/mL | 128 µg/mL |  |  |  |  |  | 
Cl.Nc1ncc(Cc2ccccc2)n1CCCc1ccccc1 | 32 µg/mL | 128 µg/mL | 16 µg/mL | 32 µg/mL | 32 µg/mL | 32 µg/mL | 16 µg/mL | 32 µg/mL | 94% | 97% | 96% | 90% | 98% | 
Cl.Nc1ncc(Cc2ccccc2)n1Cc1ccccc1 | 128 µg/mL | > 128 µg/mL | 128 µg/mL | > 128 µg/mL | > 128 µg/mL | > 128 µg/mL | 128 µg/mL | > 128 µg/mL |  |  |  |  |  | 
CCCCCCCCn1c(CC(C)C)cnc1N.Cl | 2 µg/mL | 64 µg/mL | 2 µg/mL | 16 µg/mL | 16 µg/mL | 8 µg/mL | 8 µg/mL | 16 µg/mL | 96% | 88% | 97% | 97% | 93% | 
Cl.Nc1ncc(-c2ccccc2)n1Cc1ccccc1 | 8 µg/mL | 128 µg/mL | 2 µg/mL | 16 µg/mL | 8 µg/mL | 4 µg/mL | 8 µg/mL | 128 µg/mL | 97% | 89% | 96% | 95% | 93% | 
CCCCCn1c(-c2ccccc2)cnc1N.Cl | 128 µg/mL | > 128 µg/mL | 16 µg/mL | 64 µg/mL | 64 µg/mL | 64 µg/mL | 128 µg/mL | 64 µg/mL |  |  |  |  |  | 
CCCCCCCCCCCCn1c(CCCCCC)cnc1N.Cl | 2 µg/mL | > 128 µg/mL | 0.5 µg/mL | > 128 µg/mL | 2 µg/mL | 2 µg/mL | 1 µg/mL | 64 µg/mL |  |  |  |  |  | 
CC(C)Cc1cnc(N)n1CCCc1ccccc1.Cl | 16 µg/mL | 128 µg/mL | 4 µg/mL | 32 µg/mL | 64 µg/mL | 32 µg/mL | 32 µg/mL | 32 µg/mL | 97% | 92% | 96% | 96% | 87% | 
CCCCCCCCn1c(CCCCNC(=O)OCc2ccccc2)cnc1N.Cl | 8 µg/mL | 128 µg/mL | 2 µg/mL | 64 µg/mL | 16 µg/mL | 16 µg/mL | 16 µg/mL | 64 µg/mL | 91% | 90% | 93% | 84% | 91% | 
Cl.Nc1ncc(-c2ccccc2)n1CCCc1ccccc1 | 32 µg/mL | 128 µg/mL | 8 µg/mL | 32 µg/mL | 32 µg/mL | 32 µg/mL | 32 µg/mL | 32 µg/mL | 97% | 94% | 97% | 94% | 95% | 
CCCCCn1c(CCCCNC(=O)OCc2ccccc2)cnc1N.Cl | 32 µg/mL | > 128 µg/mL | 16 µg/mL | 128 µg/mL | 32 µg/mL | 128 µg/mL | 64 µg/mL | 128 µg/mL |  |  |  |  |  | 
CCCCCn1c(Cc2ccccc2)cnc1N.Cl | 64 µg/mL | 128 µg/mL | 32 µg/mL | 64 µg/mL | 64 µg/mL | 128 µg/mL | 64 µg/mL | 64 µg/mL |  |  |  |  |  | 
CCCCCCc1cnc(N)n1CCCc1ccccc1.Cl | 8 µg/mL | 64 µg/mL | 4 µg/mL | 32 µg/mL | 8 µg/mL | 8 µg/mL | 16 µg/mL | 16 µg/mL | 98% | 94% | 96% | 91% | 98% | 
CCCCCCCCn1c(CCCCCC)cnc1N.Cl | 2 µg/mL | 32 µg/mL | 0.125 µg/mL | 8 µg/mL | 2 µg/mL | 2 µg/mL | 2 µg/mL | 8 µg/mL |  |  |  |  |  | 
CCCCCCc1cnc(N)n1CCCCC.Cl | 32 µg/mL | 64 µg/mL | 8 µg/mL | 64 µg/mL | 32 µg/mL | 32 µg/mL | 32 µg/mL | 64 µg/mL |  | 97% | 97% | 98% | 92% | inactive
CCCCCCCCCCn1c(CCCCCC)cnc1N.Cl | 1 µg/mL | 32 µg/mL | 0.25 µg/mL | 8 µg/mL | 1 µg/mL | 1 µg/mL | 1 µg/mL | 8 µg/mL | 97% | 59% | 91% | 83% | 73% | 
CCCCCCCCn1c(-c2ccccc2)cnc1N.Cl | 64 µg/mL | 128 µg/mL | 16 µg/mL | 64 µg/mL | 64 µg/mL | 64 µg/mL | 64 µg/mL | 16 µg/mL |  |  |  |  |  | 
CCCCCCc1cnc(N)n1Cc1ccccc1.Cl | 32 µg/mL | 64 µg/mL | 16 µg/mL | 16 µg/mL | 16 µg/mL | 32 µg/mL | 16 µg/mL | 16 µg/mL |  |  |  |  |  | 
